Results from PMC10808130, “Mobilization of cholesterol induces the transition from quiescence to growth in Caenorhabditis elegans through steroid hormone and mTOR signaling” (Communications Biology, 2024).

Legend:
[1] = target: T1, SCL-12 (Caenorhabditis elegans, UniProt Q9N5N3); conditions: 20 mM Tris pH 7.5, 30 mM NaCl, 0.05% Triton X-100, room temperature; 0-100 nM ligand; labelled compound
T1 sequence (Q9N5N3 17-208): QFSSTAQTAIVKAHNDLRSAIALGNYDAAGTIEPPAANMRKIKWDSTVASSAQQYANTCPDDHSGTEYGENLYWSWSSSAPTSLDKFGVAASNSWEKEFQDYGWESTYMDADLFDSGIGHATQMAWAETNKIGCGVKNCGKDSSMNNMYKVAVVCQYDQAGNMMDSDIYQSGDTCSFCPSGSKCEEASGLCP

[2] = target: T1, SCL-12; assay: competition with TopFluor cholesterol fluorescence, protein captured on Q-Sepharose beads; type: binding; parameters: C-terminal polyhistidine tag; expressed in Sf9 insect cells (baculovirus); conditions: 20 mM Tris pH 7.5, 30 mM NaCl, 0.05% Triton X-100, room temperature; pre-incubated with 50 or 100 nM cholesterol; competitive

SMILES	direct fluorescence binding, protein captured on Q-Sepharose beads [1]	competition with TopFluor cholesterol fluorescence, protein captured on Q-Sephar [2]
CC1=CC(C)=[N+]2C1=C(CC[C@@H](C)[C@H]1CC[C@H]3[C@@H]4CC=C5C[C@@H](O)CC[C@]5(C)[C@H]4CC[C@]13C)c1c(C)cc(C)n1[B-]2(F)F [TopFluor cholesterol]	Binding of TopFluor cholesterol to SCL-12 is concentration-dependent	–
CC(C)CCC[C@@H](C)[C@H]1CC[C@H]2[C@@H]3CC=C4C[C@@H](O)CC[C@]4(C)[C@H]3CC[C@]12C [cholesterol]	–	SCL-12 was pre-incubated with unmodified cholesterol, which decreased the binding of TopFluor cholesterol significantly
